Where two headings read alike, the source gives them in different places.
What was measured:
[1] = system: MCF-7 cells; assay: MTT cytotoxicity of prodrug-loaded liposomes and parent compounds, MCF-7; type: cell-based, Human; conditions: MCF7, 48 hours, free parent compounds or prodrug-incorporated liposomes (20 mol %), read-out: cell viability (MTT), potency
[2] = Differential scanning calorimetry of loaded liposomes; type: physicochemical; conditions: increasing concentration, prodrugs 0 to 37 mol %, parents 0 to 31 mol %; compared to empty liposomes; not extruded
Procedure: Prodrug-loaded liposome (PLL) samples were prepared using 20 mg of lipid per 1 mL of […] for each compound with increasing prodrug concentrations without extrusion. Deionized water was used as the calibration standard. 10 μL from each liposome suspension was transferred and sealed in an aluminum DSC pan. DSC measurements were taken at room temperature, and the sample was then heated from 15° C. to 55° C. at 5° C./min.
DSC is a thermal analytical technique useful for designing lipid drug delivery systems, like liposomes, by determining the compatibility of mixed molecules and compositions with the liposome bilayer. The thermotropic behavior of the liposomes at varying prodrug concentrations is measured to determine whether insertion of the molecules modifies the phase transition temperature. The pre-phase transition was masked by PEG-2000. […] As the concentration was increased, the phase transition returned to the phase transition of empty liposomes. […] All liposome suspensions used for DSC analysis were prepared in deionized water instead of sodium buffer to prevent undesired interactions. The samples were not extruded.

[3] = system: HeLa cells; assay: MTT cytotoxicity of prodrug-loaded liposomes and parent compounds, HeLa; type: cell-based, Human; conditions: 48 hours, free parent compounds or prodrug-incorporated liposomes (20 mol %), read-out: cell viability (MTT), potency
[4] = system: MCF10A cells; assay: MTT cytotoxicity of prodrug-loaded liposomes and parent compounds, MCF10A; type: cell-based; conditions: 48 hours, free parent compounds or prodrug-incorporated liposomes (20 mol %), read-out: cell viability (MTT), potency
[5] = Liposomal particle size distribution and stability (DLS); type: physicochemical; design: liposome diameter (DLS), Pre / liposome diameter (DLS), Post: unit not given beside the values; conditions: for PDI, Post / liposome diameter (DLS), Post: post-extrusion; for PDI, Pre / liposome diameter (DLS), Pre: pre-extrusion
Excerpt: Liposomal size distribution was characterized via dynamic light scattering (DLS). Measurements were taken with disposable polystyrene sizing cuvettes containing the liposome suspensions. Reported DLS measurements are averages of 3 individually prepared liposome samples.
The size distribution of the parent compounds and prodrug loaded liposomes were monitored over time using dynamic light scattering (DLS).
The size distribution of 2T-T liposomes were characterized via DLS measurement both pre- and post-extrusion. The standard deviations of liposome diameter were lower post extrusion. […] The size distributions of 2T-T liposomes at loaded with various concentrations of 2T-T can be seen in TABLE 2, and FIGS. 10-11. […]

[6] = 2T-T incorporation in liposomes (UV-vis, pre- and post-extrusion); type: physicochemical; conditions: 2T-T liposomes; for Actual Drug Incorporation - Post: post-extrusion; for Actual Drug Incorporation - Pre: pre-extrusion
Procedure: 2T-T liposomes were produced with increasing concentrations of 2T-T, and passed through an extruder to remove any unincorporated 2T-T from the liposome solution. Liposome solutions were analyzed both pre- and post-extrusion using UV-vis spectroscopy with a scanning range of 200 nm-500 nm, 2 nm bandwidth, […], 0.5 nm data interval, and 100 nm/min scan speed. […] Incorporation limits were analyzed up to 70 mol % (147 uM).

[7] = 2T-P and 2T-N incorporation efficiency in liposomes (UV-Vis); type: physicochemical; conditions: parent compound in liposomes
Procedure: Parent compound and prodrug concentrations in liposomes were determined using UV-Vis spectrophotometry; (2T-P: 292 nm; 2T-N: 285 nm). PLL were prepared at varying concentrations between 0 mol % to 50 mol %. The lipid amounts remained equivalent for samples under 50 mol %. Each sample was extruded through a 200 nm pore membrane for a total of 11 passes. Prior and post extrusion liposomes were ruptured by dissolution in DMSO (liposome suspension/DMSO, 1:9, v/v). Samples were analyzed in a quartz cuvette. The following parameters were used: scan speed: 120 nm/min; bandwidth: 2 nm; integration time: 0.15 sec; data interval: 0.30 nm; start wavelength: 500 nm; end wavelength: 190 nm.
N and P (SCHEME 1) are hydrophobic compounds that have been altered to contain an amphiphilic tail (2T-P and 2T-N), altering their incorporation within liposomes, which can be characterized using UV-Vis. This technique measures the decreasing transmittance through a sample surface. The absorption of the liposomes at varying concentrations (after removal of unincorporated material) can be used to calculate how much of a drug has been incorporated into liposomes.

[8] = system: HeLa cells; assay: MTT cytotoxicity of 2T-T and 2T-C prodrug-loaded liposomes; type: cell-based; conditions: Homo sapiens
Procedure: To assess the cytotoxicity of 2T-T prodrug-loaded liposomes, HeLa cells were exposed to different concentrations of topotecan or 2T-T loaded liposomes for 72 hours. After the 72 hour incubation period, cell viability was assessed via an MTT assay.
To assess the cytotoxicity of 2T-C prodrug-loaded liposomes, HeLa cells were exposed to different concentrations of cytarabine or 2T-C(NH2 attachment) loaded liposomes for 48 hours. After the 48 hour incubation period, cell viability was assessed via a MTT assay.

CCCCCCCCCCCCCCCC(=O)OCC(COP(=O)([O-])OCCNC(=O)CCCC(=O)O[C@@H]1c2cc3c(cc2[C@H](c2cc(OC)c(OC)c(OC)c2)[C@@H]2C(=O)OC[C@H]21)OCO3)OC(=O)CCCCCCCCCCCCCCC.[Na+] (stereo partly drawn) [2T-P, Sodium 2,3-bis (palmitoyloxy) propyl (2-(5-oxo-5-(((5S,5aS,8aS,9S)-8-oxo-9-(3,4,5-trimethoxyphenyl)-5,5a,6,8,8a,9-hexahydrofuro[3′,4′:6,7]naphtha[2,3-d][1,3]dioxol-5-yl)oxy)pentanamido)ethyl)phosphate]
IC50 [1]: 2560 ± 126 nM
phase transition temperature behaviour (DSC thermograms) [2]: shallow decreasing phase transition temperatures
IC50 [3]: 1370 ± 44 nM
IC50 [4]: 1540 ± 130 nM

CCCCCCCCCCCCCCCC(=O)OCC(COP(=O)([O-])OCCNC(=O)CCCC(=O)Oc1ccc2nc3c(cc2c1CN(C)C)Cn1c-3cc2c(c1=O)COC(=O)[C@@]2(O)CC)OC(=O)CCCCCCCCCCCCCCC.[Na+] (some centres unmarked) [2T-T]
PDI, Post ([5]; 2T-T 10 mol %): 0.3 ± 0
liposome diameter (DLS), Post ([5]; 2T-T 10 mol %): 130 ± 7
PDI, Pre ([5]; 2T-T 10 mol %): 0.3 ± 0
liposome diameter (DLS), Pre ([5]; 2T-T 10 mol %): 102 ± 19
PDI, Post ([5]; 2T-T 20 mol %): 0.3 ± 0
liposome diameter (DLS), Post ([5]; 2T-T 20 mol %): 129 ± 9
PDI, Pre ([5]; 2T-T 20 mol %): 0.3 ± 0.1
liposome diameter (DLS), Pre ([5]; 2T-T 20 mol %): 121 ± 16
PDI, Post ([5]; 2T-T 30 mol %): 0.3 ± 0
liposome diameter (DLS), Post ([5]; 2T-T 30 mol %): 118 ± 25
PDI, Pre ([5]; 2T-T 30 mol %): 0.3 ± 0
liposome diameter (DLS), Pre ([5]; 2T-T 30 mol %): 98 ± 28
PDI, Post ([5]; 2T-T 40 mol %): 0.3 ± 0
liposome diameter (DLS), Post ([5]; 2T-T 40 mol %): 123 ± 10
PDI, Pre ([5]; 2T-T 40 mol %): 0.3 ± 0
liposome diameter (DLS), Pre ([5]; 2T-T 40 mol %): 114 ± 24
PDI, Post ([5]; 2T-T 50* mol %): 0.3
liposome diameter (DLS), Post ([5]; 2T-T 50* mol %): 122.4
PDI, Pre ([5]; 2T-T 50* mol %): 0.3
liposome diameter (DLS), Pre ([5]; 2T-T 50* mol %): 122.4
PDI, Post ([5]; 2T-T 60* mol %): 0.3
liposome diameter (DLS), Post ([5]; 2T-T 60* mol %): 88.76
PDI, Pre ([5]; 2T-T 60* mol %): 0.5
liposome diameter (DLS), Pre ([5]; 2T-T 60* mol %): 182.9
PDI, Post ([5]; 2T-T 70* mol %): 0.3
liposome diameter (DLS), Post ([5]; 2T-T 70* mol %): 75.43
PDI, Pre ([5]; 2T-T 70* mol %): 0.4
liposome diameter (DLS), Pre ([5]; 2T-T 70* mol %): 172.1
Actual Drug Incorporation - Post ([6]; predicted 10 mol % (28.2 uM)): 22.1 ± 7.9 µM
Actual Drug Incorporation - Pre ([6]; predicted 10 mol % (28.2 uM)): 25.3 ± 6.6 µM
Actual Drug Incorporation - Post ([6]; predicted 20 mol % (53.4 uM)): 42.8 ± 4.8 µM
Actual Drug Incorporation - Pre ([6]; predicted 20 mol % (53.4 uM)): 46.8 ± 4.8 µM
Actual Drug Incorporation - Post ([6]; predicted 30 mol % (76.0 uM)): 66.2 ± 4.9 µM
Actual Drug Incorporation - Pre ([6]; predicted 30 mol % (76.0 uM)): 71.5 ± 5.1 µM
Actual Drug Incorporation - Post ([6]; predicted 40 mol % (96.5 uM)): 77.9 ± 12.3 µM
Actual Drug Incorporation - Pre ([6]; predicted 40 mol % (96.5 uM)): 82.6 ± 13.1 µM
Actual Drug Incorporation - Post ([6]; predicted 50* mol % (115.1 uM)): 116.2 µM
Actual Drug Incorporation - Pre ([6]; predicted 50* mol % (115.1 uM)): 113.4 µM
Actual Drug Incorporation - Post ([6]; predicted 60* mol % (132.0 uM)): 126.2 µM
Actual Drug Incorporation - Pre ([6]; predicted 60* mol % (132.0 uM)): 125.4 µM
Actual Drug Incorporation - Post ([6]; predicted 70* mol % (147.6 uM)): 133.7 µM
Actual Drug Incorporation - Pre ([6]; predicted 70* mol % (147.6 uM)): 133.0 µM

O=C1OCC2=C1C(c1cc(Br)cc(Br)c1)c1ccc3ccc(O)cc3c1N2 (centres unmarked) [N, 7-(3,5-Dibromophenyl)-2-hydroxy-7,11-dihydrobenzo[h]-furo[3,4-b]quinolin-8(10H)-one]
IC50 ([1]; Homo sapiens): 3 nM
IC50 ([3]; Homo sapiens): 5 ± 1 nM
IC50 ([4]; Homo sapiens, MCF-10A): 5 nM
maximum measured loading [7]: ~1.1 mol %

COc1cc([C@@H]2c3cc4c(cc3[C@H](O)[C@H]3COC(=O)[C@H]23)OCO4)cc(OC)c1OC [P, podophyllotoxin]
IC50 ([1]; Homo sapiens): 9 ± 4 nM
IC50 ([3]; Homo sapiens): 9 ± 1 nM
IC50 ([4]; Homo sapiens, MCF-10A): 14 ± 4 nM
maximum measured loading [7]: ~11 mol %

Nc1ccn([C@@H]2O[C@H](CO)[C@@H](O)[C@@H]2O)c(=O)n1 [cytarabine]
IC50 ([8]; 48 hours): 4450 ± 6290 nM

CC[C@@]1(O)C(=O)OCc2c1cc1n(c2=O)Cc2cc3c(CN(C)C)c(O)ccc3nc2-1 [topotecan]
IC50 ([8]; 72 hours): 51 ± 1 nM

Reference: patent publication US20210361575A1, “LIPID PRODRUGS FOR USE IN DRUG DELIVERY” (NEW MEXICO TECH UNIVERSITY RESEARCH PARK CORPORATION, priority 2018, published 2021)
